# Experimental data reported in patent publication US20260166039A1 (SCHRÖDINGER, INC., priority 2022, published 2026).
# Target: T1, Wee1 kinase domain (Homo sapiens, UniProt P30291)
# T1 construct: Wee1 kinase domain was purchased from Carna (catalog #05-177); purchased Carna 05-177
# Assay: Wee1 Kinase Biochemical Assay (ADP-Glo)
# Conditions: class symbols; 1 nM Wee1 enzyme, 15 uM ATP, 4 hours at 25° C.
# Method in brief: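 ADP-Glo luminescence readout of ADP produced by 1 nM kinase domain phosphorylating Poly(Lys,Tyr 4:1) (2 ng/mL) at 15 uM ATP. Reaction ran 4 h, 25 °C, in Tris/MgCl2 buffer with BSA and DTT. Inhibition scaled between DMSO (high) and saturating control inhibitor (low).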
# T1 sequence (P30291 299-569 limits assumed): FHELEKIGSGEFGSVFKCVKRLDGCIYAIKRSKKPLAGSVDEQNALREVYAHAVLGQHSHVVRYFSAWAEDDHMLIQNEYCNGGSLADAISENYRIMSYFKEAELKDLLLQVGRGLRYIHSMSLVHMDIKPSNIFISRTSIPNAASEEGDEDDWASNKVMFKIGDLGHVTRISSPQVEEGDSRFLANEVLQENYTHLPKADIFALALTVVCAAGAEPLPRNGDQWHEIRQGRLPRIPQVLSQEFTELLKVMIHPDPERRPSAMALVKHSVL
row,IC50,SMILES
1,100 to 1000 nM,"CN1CC[C@H](Oc2ccc(Nc3ncc4c(n3)N(c3cccc(N5CCOC5=O)n3)[C@H]3CC(C)(C)OC[C@@]43C)cc2)C1 [Example 614, 3-(6-((4bS,8aS)-4b,7,7-trimethyl-2-((4-(((S)-1-methylpyrrolidin-3-yl)oxy)phenyl)amino)-4b,7,8,8a-tetrahydropyrano[3′,4′:4,5]pyrrolo[2,3-d]pyrimidin-9(5H)-yl)pyridin-2-yl)oxazolidin-2-one]"
2,100 to 1000 nM,"CC1(C)C[C@@H]2N(c3cccc(N4CCCC4=O)n3)c3nc(Nc4ccc(O[C@@H]5CCNC5)cc4)ncc3[C@]2(C)CO1 [Example 617, 1-(6-((4bS,8aS)-4b,7,7-trimethyl-2-((4-(((R)-pyrrolidin-3-yl)oxy)phenyl)amino)-4b,7,8,8a-tetrahydropyrano[3′,4′:4,5]pyrrolo[2,3-d]pyrimidin-9(5H)-yl)pyridin-2-yl)pyrrolidin-2-one]"
3,10 to 100 nM,"CN1CC[C@H](Oc2ccc(Nc3ncc4c(n3)N(c3cccc(N5CCCC5=O)n3)[C@H]3CC(C)(C)OC[C@@]43C)cc2)C1 [Example 619, 1-(6-((4bS,8aS)-4b,7,7-trimethyl-2-((4-(((S)-1-methylpyrrolidin-3-yl)oxy)phenyl)amino)-4b,7,8,8a-tetrahydropyrano[3′,4′:4,5]pyrrolo[2,3-d]pyrimidin-9(5H)-yl)pyridin-2-yl)pyrrolidin-2-one]"
4,100 to 1000 nM,"CC1(C)C[C@@H]2N(c3cccc(N4CCCC4=O)n3)c3nc(Nc4ccc(O[C@H]5CCNC5)cc4)ncc3[C@]2(C)CO1 [Example 621, 1-(6-((4bS,8aS)-4b,7,7-trimethyl-2-((4-(((S)-pyrrolidin-3-yl)oxy)phenyl)amino)-4b,7,8,8a-tetrahydropyrano[3′,4′:4,5]pyrrolo[2,3-d]pyrimidin-9(5H)-yl)pyridin-2-yl)pyrrolidin-2-one]"
5,10 to 100 nM,"CC1(C)C[C@@H]2N(c3cccc(N4CCOC4=O)n3)c3nc(Nc4ccc(O[C@@H]5CCNC5)cc4)ncc3[C@]2(C)CO1 [Example 623, 3-(6-((4bS,8aS)-4b,7,7-trimethyl-2-((4-(((R)-pyrrolidin-3-yl)oxy)phenyl)amino)-4b,7,8,8a-tetrahydropyrano[3′,4′:4,5]pyrrolo[2,3-d]pyrimidin-9(5H)-yl)pyridin-2-yl)oxazolidin-2-one]"
6,10 to 100 nM,"CN1CC[C@@H](Oc2ccc(Nc3ncc4c(n3)N(c3cccc(N5CCOC5=O)n3)[C@H]3CC(C)(C)OC[C@@]43C)cc2)C1 [Example 625, 3-(6-((4bS,8aS)-4b,7,7-trimethyl-2-((4-(((R)-1-methylpyrrolidin-3-yl)oxy)phenyl)amino)-4b,7,8,8a-tetrahydropyrano[3′,4′:4,5]pyrrolo[2,3-d]pyrimidin-9(5H)-yl)pyridin-2-yl)oxazolidin-2-one]"
7,10 to 100 nM,"CN1CC[C@@H](Oc2ccc(Nc3ncc4c(n3)N(c3cccc(N5CCCC5=O)n3)[C@H]3CC(C)(C)OC[C@@]43C)cc2)C1 [Example 627, 1-(6-((4bS,8aS)-4b,7,7-trimethyl-2-((4-(((R)-1-methylpyrrolidin-3-yl)oxy)phenyl)amino)-4b,7,8,8a-tetrahydropyrano[3′,4′:4,5]pyrrolo[2,3-d]pyrimidin-9(5H)-yl)pyridin-2-yl)pyrrolidin-2-one]"
8,100 to 1000 nM,"CN1C[C@@H]2C[C@H]1CN2c1ccc(Nc2ncc3c(n2)N(c2cccc(N4CCCC4=O)n2)[C@H]2CC(C)(C)OC[C@@]32C)cc1 [Example 628, 1-(6-((4bS,8aS)-4b,7,7-trimethyl-2-((4-((1S,4S)-5-methyl-2,5-diazabicyclo[2.2.1]heptan-2-yl)phenyl)amino)-4b,7,8,8a-tetrahydropyrano[3′,4′:4,5]pyrrolo[2,3-d]pyrimidin-9(5H)-yl)pyridin-2-yl)pyrrolidin-2-one]"
9,100 to 1000 nM,"CN1C[C@H]2C[C@@H]1CN2c1ccc(Nc2ncc3c(n2)N(c2cccc(N4CCCC4=O)n2)[C@H]2CC(C)(C)OC[C@@]32C)cc1 [Example 630, 1-(6-((4bS,8aS)-4b,7,7-trimethyl-2-((4-((1R,4R)-5-methyl-2,5-diazabicyclo[2.2.1]heptan-2-yl)phenyl)amino)-4b,7,8,8a-tetrahydropyrano[3′,4′:4,5]pyrrolo[2,3-d]pyrimidin-9(5H)-yl)pyridin-2-yl)pyrrolidin-2-one]"
10,10 to 100 nM,"CC1(C)C[C@@H]2N(c3cccc(N4CCCC4=O)n3)c3nc(Nc4ccc([C@@H]5CCNC5)cc4)ncc3[C@]2(C)CO1 [Example 633, 1-(6-((4bS,8aS)-4b,7,7-trimethyl-2-((4-((S)-pyrrolidin-3-yl)phenyl)amino)-4b,7,8,8a-tetrahydropyrano[3′,4′:4,5]pyrrolo[2,3-d]pyrimidin-9(5H)-yl)pyridin-2-yl)pyrrolidin-2-one]"
11,10 to 100 nM,"CN1CC[C@H](c2ccc(Nc3ncc4c(n3)N(c3cccc(N5CCCC5=O)n3)[C@H]3CC(C)(C)OC[C@@]43C)cc2)C1 [Example 635, 1-(6-((4bS,8aS)-4b,7,7-trimethyl-2-((4-((R)-1-methylpyrrolidin-3-yl)phenyl)amino)-4b,7,8,8a-tetrahydropyrano[3′,4′:4,5]pyrrolo[2,3-d]pyrimidin-9(5H)-yl)pyridin-2-yl)pyrrolidin-2-one]"
12,10 to 100 nM,"CC1(C)C[C@@H]2N(c3cccc(N4CCCC4=O)n3)c3nc(Nc4ccc([C@H]5CCNC5)cc4)ncc3[C@]2(C)CO1 [Example 637, 1-(6-((4bS,8aS)-4b,7,7-trimethyl-2-((4-((R)-pyrrolidin-3-yl)phenyl)amino)-4b,7,8,8a-tetrahydropyrano[3′,4′:4,5]pyrrolo[2,3-d]pyrimidin-9(5H)-yl)pyridin-2-yl)pyrrolidin-2-one]"
13,10 to 100 nM,"CN1C[C@H]2C[C@@H]1CN2c1ccc(Nc2ncc3c(n2)N(c2cccc(N4CCCC4=O)n2)[C@H]2CC(C)(C)OC[C@@]32C)cc1F [Example 639, 1-(6-((4bS,8aS)-2-((3-fluoro-4-((1R,4R)-5-methyl-2,5-diazabicyclo[2.2.1]heptan-2-yl)phenyl)amino)-4b,7,7-trimethyl-4b,7,8,8a-tetrahydropyrano[3′,4′:4,5]pyrrolo[2,3-d]pyrimidin-9(5H)-yl)pyridin-2-yl)pyrrolidin-2-one]"
14,100 to 1000 nM,"CN1C[C@@H]2C[C@H]1CN2c1ccc(Nc2ncc3c(n2)N(c2cccc(N4CCCC4=O)n2)[C@H]2CC(C)(C)OC[C@@]32C)cc1F [Example 641, 1-(6-((4bS,8aS)-2-((3-fluoro-4-((1S,4S)-5-methyl-2,5-diazabicyclo[2.2.1]heptan-2-yl)phenyl)amino)-4b,7,7-trimethyl-4b,7,8,8a-tetrahydropyrano[3′,4′:4,5]pyrrolo[2,3-d]pyrimidin-9(5H)-yl)pyridin-2-yl)pyrrolidin-2-one]"
15,10 to 100 nM,"CN1CC[C@@H](c2ccc(Nc3ncc4c(n3)N(c3cccc(N5CCCC5=O)n3)[C@H]3CC(C)(C)OC[C@@]43C)cc2)C1 [Example 643, 1-(6-((4bS,8aS)-4b,7,7-trimethyl-2-((4-((S)-1-methylpyrrolidin-3-yl)phenyl)amino)-4b,7,8,8a-tetrahydropyrano[3′,4′:4,5]pyrrolo[2,3-d]pyrimidin-9(5H)-yl)pyridin-2-yl)pyrrolidin-2-one]"
16,100 to 1000 nM,"CN1C[C@@H]2C[C@H]1CN2c1ccc(Nc2ncc3c(n2)N(c2cccc(C4(O)CC4)n2)[C@H]2CC(C)(C)OC[C@@]32C)cc1 [Example 645, 1-(6-((4bS,8aS)-4b,7,7-trimethyl-2-((4-((1S,4S)-5-methyl-2,5-diazabicyclo[2.2.1]heptan-2-yl)phenyl)amino)-4b,7,8,8a-tetrahydropyrano[3′,4′:4,5]pyrrolo[2,3-d]pyrimidin-9(5H)-yl)pyridin-2-yl)cyclopropan-1-ol]"
17,10 to 100 nM,"CN1C[C@H]2C[C@@H]1CN2c1ccc(Nc2ncc3c(n2)N(c2cccc(C4(O)CC4)n2)[C@H]2CC(C)(C)OC[C@@]32C)cc1 [Example 647, 1-(6-((4bS,8aS)-4b,7,7-trimethyl-2-((4-((1R,4R)-5-methyl-2,5-diazabicyclo[2.2.1]heptan-2-yl)phenyl)amino)-4b,7,8,8a-tetrahydropyrano[3′,4′:4,5]pyrrolo[2,3-d]pyrimidin-9(5H)-yl)pyridin-2-yl)cyclopropan-1-ol]"
18,10 to 100 nM,"C[C@H]1CCC(=O)N1c1cccc(N2c3nc(Nc4ccc(N5C[C@@H]6C[C@H]5CN6C)cc4)ncc3[C@]3(C)COC(C)(C)C[C@H]23)n1 [Example 650, (S)-5-methyl-1-(6-((4bS,8aS)-4b,7,7-trimethyl-2-((4-((1S,4S)-5-methyl-2,5-diazabicyclo[2.2.1]heptan-2-yl)phenyl)amino)-4b,7,8,8a-tetrahydropyrano[3′,4′:4,5]pyrrolo[2,3-d]pyrimidin-9(5H)-yl)pyridin-2-yl)pyrrolidin-2-one]"
19,10 to 100 nM,"Cc1cc(Nc2ncc3c(n2)N(c2cccc(N4CCCC4=O)n2)[C@H]2CC(C)(C)OC[C@@]32C)ccc1N1C[C@@H]2C[C@H]1CN2C [Example 653, 1-(6-((4bS,8aS)-4b,7,7-trimethyl-2-((3-methyl-4-((1S,4S)-5-methyl-2,5-diazabicyclo[2.2.1]heptan-2-yl)phenyl)amino)-4b,7,8,8a-tetrahydropyrano[3′,4′:4,5]pyrrolo[2,3-d]pyrimidin-9(5H)-yl)pyridin-2-yl)pyrrolidin-2-one]"
20,10 to 100 nM,"Cc1cc(Nc2ncc3c(n2)N(c2cccc(N4CCOC4=O)n2)[C@H]2CC(C)(C)OC[C@@]32C)ccc1N1C[C@@H]2C[C@H]1CN2C [Example 655, 3-(6-((4bS,8aS)-4b,7,7-trimethyl-2-((3-methyl-4-((1S,4S)-5-methyl-2,5-diazabicyclo[2.2.1]heptan-2-yl)phenyl)amino)-4b,7,8,8a-tetrahydropyrano[3′,4′:4,5]pyrrolo[2,3-d]pyrimidin-9(5H)-yl)pyridin-2-yl)oxazolidin-2-one]"
21,10 to 100 nM,"C[C@H]1CCC(=O)N1c1cccc(N2c3nc(Nc4ccc(N5C[C@H]6C[C@@H]5CN6C)cc4)ncc3[C@]3(C)COC(C)(C)C[C@H]23)n1 [Example 656, (S)-5-methyl-1-(6-((4bS,8aS)-4b,7,7-trimethyl-2-((4-((1R,4R)-5-methyl-2,5-diazabicyclo[2.2.1]heptan-2-yl)phenyl)amino)-4b,7,8,8a-tetrahydropyrano[3′,4′:4,5]pyrrolo[2,3-d]pyrimidin-9(5H)-yl)pyridin-2-yl)pyrrolidin-2-one]"
